Assay results reported in US9498446B2, “Pharmaceutical compositions resistant to abuse” (Egalet Ltd., priority 2009, dated 2016).
Values joined by “and” are separate entries in the source; they are usually repeats but may differ in a detail not shown here. Identical values can stand only once.

Test: Dissolution test of naltrexone from intact and ground tablets
Format: physicochemical
Protocol: Polylactid acid was injection moulded in a Haake Minijet (Haake MiniJet II, Thermo Electron, Karlsruhe, Germany) as described in Methods. An inner core filled with approximately 25 mg Naltrexone hydrochloride was prepared and closed in both ends with the above mentioned shell composition. The inner core has a size of 8 mm×4.26 mm×2.49 mm. The inner core was placed in the cavity of a larger shell 2 (H: 20 mm; L: 6 mm; B: 6 mm) with the same shell composition and the large shell was filled with placebo matrix composition as described in Methods.
Dissolution tests of naltrexone were performed in accordance to USP 30, NF 25, (711). Apparatus 2 (paddle method). The dissolution medium consisted of phosphate buffer solution pH 6.8. The volume of the dissolution medium was 500 ml and the rotation speed of the paddles was 50 rpm throughout the dissolution rum. The temperature was 37° C. Samples were withdrawn at suitable time intervals and analysed for content of active drug substance by means of HPLC UV detection. Intact tablets n=2 and tablets milled in a Coffee Grinder, Krups GVX242 (n=2) were analyse in dissolution.
The amount of naltrexone was determined by a modified USP method. The technique was reverse phase chromatography, using a Supelco Ascentis Express C18 2.7 μm 4.6*100 mm column. The mobile phase consisted of 1.08 g sodium 1-octanesulphonate, 23.8 g sodium acetate, 1 ml triethylamine, 450 ml methanol and approximately 550 ml water. The HPLC settings were as follows: Isocratic, column temperature 30° C. flow 0.6 ml/min, detection HPLC-UV at 280 nm, injection volume 20 μl with a 6 minutes run time.

Q: What does the source list for `O=C1CC[C@@]2(O)[C@H]3Cc4ccc(O)c5c4[C@@]2(CCN3CC2CC2)[C@H]1O5` [Naltrexone]?
A: Amount of naltrexone found in dissolution medium (Ground tablet (Coffee Grinder, Krups GVX242), 0.2 hours, phosphate buffer pH 6.8, 100% = 25 mg): 34.1% and 31.5%; Amount of naltrexone found in dissolution medium (Ground tablet, 0.5 hours): 36.3% and 34.2%; Amount of naltrexone found in dissolution medium (Ground tablet, 0.8 hours): 36.6% and 34.7%; Amount of naltrexone found in dissolution medium (Ground tablet, 1.5 hours): 37.4% and 34.9%; Amount of naltrexone found in dissolution medium (Ground tablet, 20 hours): 39.0% and 37.1%; Amount of naltrexone found in dissolution medium (Ground tablet, 30 hours): 34.9% and 35.9%
